The test system of experiment [1] is STING / IRF pathway in THP1-Dual cells. In words: STING THP1 Reporter Assay, IRF pathway (secreted Lucia luciferase, QUANTI-Luc). The class given is cell-based. The note with it: 10% human plasma, 100% activation = 100 μM cGAMP, luciferase readout, read-out: THP1 Reporter Assays EC50 IRF3. An excerpt:
(§1) THP1-Dual™ cells were derived from the human THP-1 monocyte cell line by stable integration of two inducible reporter constructs. To this end, THP1-Dual™ cells allow the simultaneous study of the […], by monitoring the activity of SEAP, and the IRF pathway by assessing the activity of a secreted luciferase (Lucia). Both reporter proteins are readily measurable in the cell culture supernatant when using QUANTI-Blue™, a SEAP detection reagent, and QUANTI-Luc™, a luciferase detection reagent.
(§2) THP1-Dual™ cells induce the activation of NF-κB in response to STING agonists. They also trigger the IRF pathway upon stimulation with STING agonists, such as cGAMP. Here, the THP-1-Dual cells were used to assess STING binders for function on the cellular level.
(§3) Serial dilutions of compounds in DMSO were added to low volume 384 well plates at 100 nl/well using an ECHO acoustic dispenser (Labcyte, model 550) to achieve final starting concentration of 100 μM in cell suspension. THP-1 Dual™ STING reporter cells (Invivogen, Dual cells cat #THPD-nfis) were added to the plates with compounds at 15,000 cells in 10 μL per well in RPMI media (Gibco, cat #11875) containing 10% human plasma in a low volume 384-well black wall clear bottom tissue culture plate (Corning, cat #3542) for SEAP assay and low volume solid white plate (Corning, cat #3826) for luciferase assay. One column of the plate was reserved for treatment with cGAMP at 100 μM for 100% activation calculation and one column for no treatment (DMSO only) for baseline activation. Plates were then incubated in 37 OC incubator at 5% CO2 for 20 hours.
(§4) In the SEAP assay, […] 2× QuantiBlue (Invivogen, cat #Rep-qb2) is added to 384 well black plates seeded with THP1 cells and incubated at 37° C. for 2 hours. Plates were read on the Envision (Perkin Elmer) at 620 nm wavelength (OD620). In the luciferase assay, 5 μl of Quantiluc (Invivogen, Rep-qlc2) is added to white 384 well plates seeded with THP1 cells and read at 5 minutes on the Envision (Perkin Elmer) using a luminescence protocol (RLU). For both cell lines, 100% activation was determined by value (RLU) of THP-1 Dual STING cells stimulated with 100 μM cGAMP (Invivogen, cat #TLRL-NACGA23-5).
(In a reporter assay the amount or activity of a reporter protein is the signal.)

Experiment [2] deals with STING / NF-κB pathway in THP1-Dual cells. Nature of the experiment: STING THP1 Reporter Assay, NF-κB pathway (SEAP, QUANTI-Blue). The class given is cell-based. The note with it: 10% human plasma, 100% activation = 100 μM cGAMP, SEAP readout, read-out: THP1 Reporter Assays EC50 NFkB.
Description: as §1, §2, §3, §4

Experiment [3] concerns the target T1, STING WT (His-TVMV-S-hSTING(155-341)-H232R) (Homo sapiens, UniProt Q86WV6, H232R).
T1 construct: STING WT: His-TVMV-S-hSTING(155-341)-H232R
In words: STING HTRF binding assay (time resolved FRET competition), STING WT. The note with it: 20 nM His-tagged STING WT cytoplasmic domain, 200 nM fluorescein-labeled cGAMP analog probe, one hour; read-out: HTRF Binding Assays IC50 WT. The method, then: (§5) A time resolved FRET-based competition binding assay was used to assess test article binding to STING WT and STING AQ. His-tagged STING cytoplasmic domain (WT or AQ) at a concentration of 20 nM was incubated with 2.5 nM Tb-labeled anti-His antibody, test compound, and fluorescein-labeled cGAMP analog probe (BioLog cat. no. C195) at a concentration of 200 nM (STING WT) or 40 nM (STING AQ) in PBS containing 0.005% Tween-20 and 0.1% BSA for one hour. Fluorescence at 495 nm and 520 nm was measured using an EnVision microplate reader to quantify FRET between Tb-labeled anti-His antibody and fluorescein-labeled probe. Background was defined as the signal obtained in the absence of STING protein, and background subtracted FRET ratios were normalized to the maximum signal obtained in the absence of test compound. These values were converted to a percent inhibition. Percent inhibition was determined for test compounds at 11 concentrations. The IC50, defined as the concentration of competing test compound needed to reduce specific binding of the probe by 50%, was calculated using the 4 parameter logistic equation to fit the data
STING WT: His-TVMV-S-hSTING(155-341)-H232R • […] […] […] […] LRQEEKEEV (SEQ ID NO:1)

Experiment [4] concerns the target T2, STING AQ (His-TVMV-S-hSTING(155-341)-G230A-R293Q) (Homo sapiens, UniProt Q86WV6, G230A/H232R/R293Q).
T2 construct: STING AQ: His-TVMV-S-hSTING(155-341)-G230A-R293Q
Nature of the experiment: STING HTRF binding assay (time resolved FRET competition), STING AQ. The note with it: 20 nM His-tagged STING AQ cytoplasmic domain, 40 nM fluorescein-labeled cGAMP analog probe, one hour; read-out: HTRF Binding Assays IC50 AQ. The method, then:
as §5
STING AQ: His-TVMV-S-hSTING(155-341)-G230A-R293Q • […] […] […] […] LRQEEKEEV (SEQ ID NO:2)

Like-named read-outs stand apart in the source and are kept apart here.

T2 sequence (Q86WV6 with tags, fused parts or gaps G230A/H232R/R293Q): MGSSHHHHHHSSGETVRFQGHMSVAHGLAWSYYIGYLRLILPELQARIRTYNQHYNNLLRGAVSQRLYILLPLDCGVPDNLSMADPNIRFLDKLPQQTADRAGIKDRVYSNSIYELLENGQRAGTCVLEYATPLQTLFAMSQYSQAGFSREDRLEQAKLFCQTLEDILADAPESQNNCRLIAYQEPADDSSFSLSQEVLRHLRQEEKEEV
T1 sequence (Q86WV6 with tags, fused parts or gaps H232R): as the sequence (Q86WV6 with tags, fused parts or gaps G230A/H232R/R293Q) above, with A99G, Q162R counted along it

With `NC(=O)c1cccc2c1nnn2[C@@H]1O[C@@H]2COP(=O)(O)O[C@H]3[C@@H](F)[C@H](n4cnc5c(N)ncnc54)O[C@@H]3COP(=O)(S)O[C@@H]1[C@@H]2O` (single isomer, unassigned) [Example 4-1], the EC50 in experiment [1] (20 hours) was determined as 4500 nM; in experiment [2] (20 hours), 12000 nM. The half-inhibitory concentration (IC50) in experiment [3] worked out at 60 nM; in experiment [4], 10 nM.
The like results for `NC(=O)c1cccc2c1nnn2[C@@H]1O[C@@H]2COP(=O)(O)O[C@H]3[C@@H](F)[C@H](n4cnc5c(N)ncnc54)O[C@@H]3COP(=O)(S)O[C@@H]1[C@@H]2O` (single isomer, unassigned) [Example 4-2] were, in that order, 700 nM, 1700 nM, 10 nM and 2 nM.
`Nc1ncnc2c1ncn2[C@@H]1O[C@@H]2COP(=O)(S)O[C@@H]3[C@H](O)[C@@H](COP(=O)(O)O[C@H]2[C@H]1F)O[C@H]3n1nnc2c([N+](=O)[O-])cccc21` (single isomer, unassigned) [Example 5-1]: the EC50 in experiment [1] (Homo sapiens, THP1-Dual, 20 h) is 3500 nM; in experiment [2] (Homo sapiens, THP1-Dual, 20 h), 7600 nM. The IC50 in experiment [3] and in experiment [4] was 10 nM in each case.
In the case of `Nc1ncnc2c1ncn2[C@@H]1O[C@@H]2COP(=O)(S)O[C@@H]3[C@H](O)[C@@H](COP(=O)(O)O[C@H]2[C@H]1F)O[C@H]3n1nnc2c([N+](=O)[O-])cccc21` (single isomer, unassigned) [Example 5-2], the EC50 in experiment [1] (20 hours) was 5600 nM; in experiment [2] (20 hours), 13000 nM. For the same compound, in experiment [4], the IC50 came out at 10 nM.
`NC(=O)c1cccc2c1nnn2[C@@H]1O[C@@H]2COP(=O)(O)O[C@H]3[C@@H](F)[C@H](n4cnc5c(N)ncnc54)O[C@@H]3COP(=O)(S)O[C@@H]1[C@@H]2F` (single isomer, unassigned) [Example 6-1]: the 50% effective concentration (EC50) was 1400 nM in experiment [1] (20 hours) and 4100 nM in experiment [2] (20 hours). The values for the IC50 in experiment [3] and in experiment [4] were 20 nM and 10 nM, respectively.
Consider `NC(=O)c1cccc2c1nnn2[C@@H]1O[C@@H]2COP(=O)(O)O[C@H]3[C@@H](F)[C@H](n4cnc5c(N)ncnc54)O[C@@H]3COP(=O)(S)O[C@@H]1[C@@H]2F` (single isomer, unassigned) [Example 6-2], for which the EC50 in experiment [1] (20 hours) stood at 8800 nM; in experiment [2] (20 hours), 36800 nM. Moreover, the 50% inhibitory concentration (IC50) in experiment [3] was 50 nM; in experiment [4], 4 nM.
Consider `Nc1ncnc2c1ncn2[C@@H]1O[C@@H]2COP(=O)(S)O[C@@H]3[C@H](O)[C@@H](COP(=O)(S)O[C@H]2[C@H]1F)O[C@H]3n1nnc2c([N+](=O)[O-])cccc21` (single isomer, unassigned) [Example 7-1], for which the EC50 was 600 nM in experiment [1] (20 hours) and 2100 nM in experiment [2] (20 hours). The IC50 in experiment [3] and in experiment [4] was 10 nM each time.
Consider `Nc1ncnc2c1ncn2[C@@H]1O[C@@H]2COP(=O)(S)O[C@@H]3[C@H](O)[C@@H](COP(=O)(S)O[C@H]2[C@H]1F)O[C@H]3n1nnc2c([N+](=O)[O-])cccc21` (single isomer, unassigned) [Example 7-2], for which the EC50 in experiment [1] (20 hours) was 28000 nM; in experiment [2] (20 hours) it was 64000 nM. In addition, the IC50 amounted to 240 nM in experiment [3] and 40 nM in experiment [4].
The like results for `Nc1ncnc2c1ncn2[C@@H]1O[C@@H]2COP(=O)(S)O[C@@H]3[C@H](O)[C@@H](COP(=O)(S)O[C@H]2[C@H]1F)O[C@H]3n1nnc2c([N+](=O)[O-])cccc21` (single isomer, unassigned) [Example 7-3] were, in that order, 7200 nM, 15300 nM, 60 nM and 10 nM.
Take `Nc1ncnc2c1ncn2[C@@H]1O[C@@H]2COP(=O)(O)O[C@@H]3[C@H](O)[C@@H](COP(=O)(O)O[C@H]2[C@H]1O)O[C@H]3n1nnc2c(N)cccc21` [Example 21, (1R,6R,8R,9R,10S,15R,17R,18R)-17-(4-amino-1H-1,2,3-benzotriazol-1-yl)-8-(6-amino-9H-purin-9-yl)-3,9,12,18-tetrahydroxy-2,4,7,11,13,16-hexaoxa-3λ^5,12λ^5-diphosphatricyclo[13.2.1.0^6,10]octadecane-3,12-dione]: the 50% effective concentration (EC50) in experiment [1] (Homo sapiens, THP1-Dual, 20 h) is above 100000 nM; in experiment [2] (Homo sapiens, THP1-Dual, 20 h) it was above 100000 nM. In addition, the half-maximal inhibitory concentration (IC50) in experiment [3] is 1700 nM.

Broadly, the EC50 is the midpoint of the concentration-response curve. The term IC50 denotes the concentration needed to halve the response being measured.

The values are drawn from patent US10947263B2, “Cyclic dinucleotides as anticancer agents” (BRISTOL-MYERS SQUIBB COMPANY, priority 2017, dated 2021).
